Data set [1] is described as follows: Whole blood stability, monkey. Format: in vitro ADME. As to conditions: 37° C.; for half-life at 5 µM: read-out: Whole Blood Stability (T1/2) (converted). On the procedure: (§1) Representative compounds of the invention were tested for their whole blood stability as follows:
(§2) Test compounds were prepared as a 500 μM stock solution in DMSO (Adding 10 μl of 10 mM DMSO stock solution to 190 μl of 100% DMSO). Whole blood was thawed on ice. A whole blood plate was prepared by adding 460 μl of the whole blood (different species as needed) to a 96-well in ml deep well plate. The whole blood plate was preincubated at 37° C. for 10 min. 4 μl of compound solution and 396 μl of whole blood was added to the plate and mixed thoroughly. Each sample was aliquoted (30 μl) to the incubation plate (cluster tubes) and quenched at time zero with ice-cold 100% ACN, and the incubation plates were added to the 37° C. incubator (200 μl).
(§3) The time zero sample was maintained at 4° C. until centrifuged. All other samples were quench at different time points (1, 2, 4 hr), vortexed for 30 seconds and centrifuged at 3500 rpm for 15 min at 4° C. 30 μl of supernatant was added to 170 μl 0.1% FA aqueous solution and the sample was analyzes by LC/MS/MS.

A short description of data set [2]: Whole blood stability, dog. It counts as in vitro ADME. As to conditions: 37° C.; for half-life at 5 µM: read-out: Whole Blood Stability (T1/2) (converted). Here is the method:
as §1, §2, §3

In data set [3] the target is T1, KRAS G12C 1-169, his-tagged protein, GDP-loaded (Homo sapiens, UniProt P01116, G12C).
T1 construct: KRAS G12C 1-169, his-tagged protein, GDP-loaded
T1 sequence (P01116 1-169 isoform P01116-2 G12C): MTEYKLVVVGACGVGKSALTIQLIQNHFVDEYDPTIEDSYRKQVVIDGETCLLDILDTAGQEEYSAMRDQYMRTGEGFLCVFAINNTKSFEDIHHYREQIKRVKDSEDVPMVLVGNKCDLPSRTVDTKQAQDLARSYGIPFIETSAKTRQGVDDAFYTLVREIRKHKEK
The data set is described as follows: KRAS G12C covalent binding (% modification) by mass spectrometry, ten or three minute incubation. As to conditions: covalent binding to KRAS G12C after a ten minute incubation period. A digest of the protocol: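 GDP-loaded protein in 20 mM Hepes, 150 mM NaCl, 1 mM MgCl2 was incubated with compound (final 100, 30 or 10 μM; 2% DMSO) at room temperature, then quenched with formic acid. Intact-protein LC-MS with charge-envelope deconvolution gave masses and intensities of modified and unmodified species.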

Each structure is given as a SMILES string.

As to `C=CC(=O)N1CCN(c2nc(OCCN(CC)CC)nc3c(F)c(-c4c(O)cccc4F)c(Cl)cc23)CC1` [A, reference compound], the half-life at 5 µM in data set [1] was 6 min; in data set [2], 36 min.
Take `C=CC(=O)N1CCN(c2nc(OCCN3CC(F)(F)C3)nc3c(F)c(-c4c(O)cccc4F)c(Cl)cc23)C[C@H]1C` (atropisomer, axis not shown) [Compound 63, 1-((R)-4-((S)-6-chloro-2-(2-(3,3-difluoroazetidin-1-yl)ethoxy)-8-fluoro-7-(2-fluoro-6-hydroxyphenyl)quinazolin-4-yl)-2-methylpiperazin-1-yl)prop-2-en-1-one]: the results for the half-life at 5 µM in data set [1] and in data set [2] were 72 min and 78 min, respectively.
`C=CC(=O)N1C[C@H](C)N(c2nc(OCCN(CC)CC)nc3c(F)c(-c4c(O)cccc4F)c(Cl)cc23)C[C@H]1C` (atropisomer, axis not shown) [Compound 75, 1-((2R,5S)-4-((S)-6-chloro-2-(2-(diethylamino)ethoxy)-8-fluoro-7-(2-fluoro-6-hydroxyphenyl)quinazolin-4-yl)-2,5-dimethylpiperazin-1-yl)prop-2-en-1-one]: the half-life at 5 µM in data set [1] is 234 min; in data set [2] it was 288 min.
The matching figures for `C=CC(=O)N1CCN(c2nc(N3CC(N(C)C)C3)nc3c(F)c(-c4c(O)cccc4F)c(Cl)cc23)CC1` [B, reference compound]: 6 min and 42 min.
For `C=CC(=O)N1CCN(c2nc(N3CC(N(C)C)C3)nc3c(F)c(-c4c(O)cccc4F)c(Cl)cc23)C[C@H]1C` (atropisomer, axis not shown) [Compound 60, 1-((R)-4-((S)-6-chloro-2-(3-(dimethylamino)azetidin-1-yl)-8-fluoro-7-(2-fluoro-6-hydroxyphenyl)quinazolin-4-yl)-2-methylpiperazin-1-yl)prop-2-en-1-one], the results for the half-life at 5 µM in data set [1] and in data set [2] were 87 min and 138 min, respectively.
Turning to `C=CC(=O)N1C[C@H](C)N(c2nc(N3CC(N(C)C)C3)nc3c(F)c(-c4c(C)ccc5cn[nH]c45)c(Cl)cc23)C[C@H]1C` (atropisomer, axis not shown) [Compound 72, 1-((2R,5S)-4-((R)-6-chloro-2-(3-(dimethylamino)azetidin-1-yl)-8-fluoro-7-(6-methyl-1H-indazol-7-yl)quinazolin-4-yl)-2,5-dimethylpiperazin-1-yl)prop-2-en-1-one], the Binding % result in data set [3] is reported as “+++ (+++ indicates binding activity greater than 90%)”. For the same molecule, the “Whole Blood Stability (T1/2)” value in data set [1] was 3.9 h; in data set [2], 5.95 h.
With `C=CC(=O)N1C[C@H](C)N(c2nc(OCCN3CC(F)(F)C3)nc3c(F)c(-c4c(O)cccc4F)c(Cl)cc23)C[C@H]1C` [Compound 38, 1-((2R,5S)-4-(6-chloro-2-(2-(3,3-difluoroazetidin-1-yl)ethoxy)-8-fluoro-7-(2-fluoro-6-hydroxyphenyl)quinazolin-4-yl)-2,5-dimethylpiperazin-1-yl)prop-2-en-1-one], the Binding % entry in data set [3] was “+++ (+++ indicates binding activity greater than 90%)”. Further, the “Whole Blood Stability (T1/2)” value in data set [1] stood at 7.8 h. In addition, in data set [2], the half-life at 5 µM was 180 min.
As for `C=CC(=O)N1C[C@H](C)N(c2nc(N3CC(N(C)C)C3)nc3c(F)c(-c4c(O)cccc4F)c(Cl)cc23)C[C@H]1C` (atropisomer, axis not shown) [Compound 52, 1-((2R,5S)-4-((S)-6-chloro-2-(3-(dimethylamino)azetidin-1-yl)-8-fluoro-7-(2-fluoro-6-hydroxyphenyl)quinazolin-4-yl)-2,5-dimethylpiperazin-1-yl)prop-2-en-1-one], in data set [3], the Binding % entry is listed as “+++ (+++ indicates binding activity greater than 90%)”. Further, the half-life at 5 µM in data set [1] is 408 min; in data set [2], 306 min.
Take `C=CC(=O)N1CCN(c2nc(OCCN3CC(F)(F)C3)nc3c(F)c(-c4c(O)cccc4F)c(Cl)cc23)CC1` [C, reference compound]: the half-life at 5 µM in data set [1] is 12 min; in data set [2], 36 min.
On to `C=CC(=O)N1[C@H](C)CN(c2nc(N3CC(N(C)C)C3)nc3c(F)c(-c4c(O)cccc4F)c(Cl)cc23)C[C@@H]1C` [Compound 68, 1-((2R,6S)-4-((R)-6-chloro-2-(3-(dimethylamino)azetidin-1-yl)-8-fluoro-7-(2-fluoro-6-hydroxyphenyl)quinazolin-4-yl)-2,6-dimethylpiperazin-1-yl)prop-2-en-1-one], for which the half-life at 5 µM in data set [1] is 60 min; in data set [2], 96 min.
With `C=CC(=O)N1CCN(c2nc(N3CC(N(C)C)C3)nc3c(F)c(-c4c(C)ccc5cn[nH]c45)c(Cl)cc23)C[C@H]1C` (atropisomer, axis not shown) [Compound 70, 1-((R)-4-((R)-6-chloro-2-(3-(dimethylamino)azetidin-1-yl)-8-fluoro-7-(6-methyl-1H-indazol-7-yl)quinazolin-4-yl)-2-methylpiperazin-1-yl)prop-2-en-1-one], the half-life at 5 µM in data set [1] is 78 min; in data set [2], 180 min.

(Values after patent US11021470B2, “2-substituted quinazoline compounds comprising a substituted heterocyclic group and methods of use thereof” (Araxes Pharma LLC, priority 2015, dated 2021).)
